For 34 compounds, EC50 results are on record in US20160045505A1, “COMPOUNDS AND COMPOSITIONS FOR THE TREATMENT OF PARASITIC DISEASES” (NOVARTIS AG, priority 2013, published 2016).

For experiment [1], the system named is Trypanosoma cruzi amastigotes (Tulahuen strain expressing Lac-Z) cultured in 3T3 fibroblast cells. As to the kind of experiment: microbe, parasite or virus in culture. Type of experiment: cell-based. The note with it: Trypanosoma cruzi, TULAHUEN, Fibroblast, T. cruzi amastigotes in 3T3 fibroblast cells, read-out: T cruzi EC50.
Experiment [2] has as its system Trypanosoma brucei Lister 427 strain, bloodstream form. As to the kind of experiment: Assay for proliferation of kinetoplastid parasite Trypanosoma brucei (Cell Titer Glo, 48 hours). Type of experiment: cell-based. The note with it: Trypanosoma brucei, T. brucei Lister 427 bloodstream form, read-out: T. brucei EC50. In short, it runs like this:
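Bloodstream-form T. brucei Lister 427 in HMI-9 medium was exposed to compound (DMSO vehicle) for 48 hours at 37° C, 5% CO2. Parasite growth was read as ATP by CellTiter-Glo luminescence, with EC50 calculated from percent inhibition.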

Experiment [3] relates to L. donovani HU3 strain in mouse peritoneal macrophages. As to the kind of experiment: Assay for proliferation of Leishmania parasites in infected mouse peritoneal macrophages (SybrGreen staining, high-content imaging, 5 days). Type of experiment: cell-based, Leishmania donovani. Conditions: Leishmania donovani, Peritoneal macrophage, L. donovani in mouse peritoneal macrophages, read-out: L. donovani Macrophage EC50.

Experiment [4] has as its system Leishmania donovani axenic amastigote parasites. As to the kind of experiment: Leishmania donovani axenic amastigote proliferation assay (Cell TiterGlo luminescence, 2 day incubation). Type of experiment: cell-based. The note with it: Leishmania donovani, read-out: L. donovani amastigotes EC50. For orientation: ATP-based viability assays read luminescence as a measure of living cells.

Setting [5] is: axenic amastigotes, inhibition of proliferation.

SMILES strings stand for the structures. Read-outs that look alike come from different tables or passages of the source.

Regarding `O=C(Nc1ccc(F)c(-c2cn3cc(C4=CCOCC4)cnc3n2)c1)N1CC(F)C1` [Compound 318], the EC50 (usually the concentration needed to bring the measured effect to its halfway point) came out at 146 nM in experiment [1] (inhibition of proliferation), 19 nM in experiment [2] (inhibition of proliferation), 132 nM in experiment [3] (inhibition of proliferation) and 31 nM in experiment [4] (setting [5]).
For the compound `CC1COC(Nc2ccc(F)c(-c3cn4cc(NC(=O)OC(C)C)cnc4n3)c2)=N1` (stereo not shown) [Compound 502], the EC50 in experiment [1] was 11000 nM; in experiment [2], 6730 nM; in experiment [3], 16000 nM; in experiment [4] (L. donovani axenic amastigotes), more than 25000 nM.
For the compound `Cc1ccc(-c2cnc3nc(-c4cc(NC(=O)c5oc(C)nc5C)ccc4F)cn3c2)nn1` [Compound 448], the 50% effective concentration (EC50) came to 798 nM in experiment [1], 157 nM in experiment [2], 5150 nM in experiment [3] and 108 nM in experiment [4] (L. donovani axenic amastigotes).
The corresponding values for `Cc1nc(C)c(C(=O)Nc2ccc(F)c(-c3cn4cc([Si](C)(C)C)cnc4n3)c2)o1` [Compound 549, N-(4-fluoro-3-(6-(trimethylsilyl)imidazo[1,2-a]pyrimidin-2-yl)phenyl)-2,4-dimethyloxazole-5-carboxamide] are 63 nM, 117 nM, 448 nM and 133 nM.
The matching figures for `CC(C)Nc1cnc2nc(-c3cc(NC(=O)N4CC[C@@H](F)C4)ccc3F)cn2c1` [Compound 461]: 232 nM, 55 nM, 185 nM and 234 nM.
As for `CC(C)OC(=O)Nc1cnc2nc(-c3cc(NC(=O)N4CC[C@H](F)C4)ccc3F)cn2c1` [Compound 227], the half-maximal effective concentration (EC50) in experiment [1] (inhibition of proliferation) was 4910 nM; in experiment [2] (inhibition of proliferation) it was 4370 nM; in experiment [3] (inhibition of proliferation) it was more than 50000 nM; in experiment [4] (setting [5]), 3740 nM.
With `Cc1nc(C)c(C(=O)Nc2ccc(F)c(-c3cn4cc(C(C)c5ccccc5)cnc4n3)c2)o1` (stereo not shown) [Compound 420], the EC50 in experiment [1] turned out to be 307 nM; in experiment [2], 520 nM; in experiment [3], 1090 nM; in experiment [4] (L. donovani axenic amastigotes), 830 nM.
With `CC(C)OC(=O)Nc1cnc2nc(-c3cc(NC(=O)N4C(C)CCC4C)ccc3Cl)cn2c1` (stereo not shown) [Compound 270], the concentration for a half-maximal effect (EC50) in experiment [1] (inhibition of proliferation) was 701 nM; in experiment [2] (inhibition of proliferation) it was 4110 nM; in experiment [3] (inhibition of proliferation), 2200 nM; in experiment [4] (setting [5]) it was 2900 nM.
For the compound `Cc1nc(C)c(C(=O)Nc2ccc(F)c(-c3cn4cc(NC(=O)CN(C)C)cnc4n3)c2)o1` [Compound 186], the EC50 was determined as 10200 nM in experiment [1] (inhibition of proliferation), 590 nM in experiment [2] (inhibition of proliferation), 6220 nM in experiment [3] (inhibition of proliferation) and 15800 nM in experiment [4] (setting [5]).
The matching figures for `CC(C)OC(=O)Nc1cnc2nc(-c3cc(NC(=O)c4nccn4C)ccc3F)cn2c1` [Compound 97]: 10500 nM, 13200 nM, 18200 nM and 12000 nM.
The matching figures for `CC(C)OC(=O)Nc1cnc2nc(-c3cc(NC(=O)N4CC(F)(F)C(F)(F)C4)ccc3Cl)cn2c1` [Compound 266]: 1160 nM, 1450 nM, 3370 nM and 1260 nM.
The matching figures for `CC(C)OC(=O)Nc1cnc2nc(-c3cc(NC(=O)N(C)c4nccn4C)ccc3Cl)cn2c1` [Compound 256]: more than 20000 nM, 31600 nM, more than 50000 nM and more than 25000 nM.
As to `O=C(Nc1ccc(F)c(-c2cn3cc(NC4CCOCC4)cnc3n2)c1)N1CCCC1` [Compound 475], the EC50 in experiment [1] came to 9160 nM; in experiment [2] it was 217 nM; in experiment [3] it was 5980 nM; in experiment [4] (L. donovani axenic amastigotes), 1310 nM.
The matching figures for `O=C(Nc1ccc(Cl)c(-c2cn3cc(-c4ccc(OC5CCNCC5)cc4)cnc3n2)c1)N1CCCC1` [Compound 574]: 436 nM, 460 nM, 886 nM and 744 nM.
Regarding `CCC(O)(C(=O)Nc1cnc2nc(-c3cc(NC(=O)N4CCCC4)ccc3F)cn2c1)C(F)(F)F` (stereo not shown) [Compound 128], the EC50 is more than 20000 nM in experiment [1] (inhibition of proliferation), 171 nM in experiment [2] (inhibition of proliferation), more than 50000 nM in experiment [3] (inhibition of proliferation) and 1750 nM in experiment [4] (setting [5]).
As to `Cc1nc(C)c(C(=O)Nc2ccc(F)c(-c3cn4cc(N(C)C(=O)OC(C)C)cnc4n3)c2)o1` [Compound 552], the concentration for a half-maximal effect (EC50) is 326 nM in experiment [1], 240 nM in experiment [2], 967 nM in experiment [3] and 420 nM in experiment [4] (L. donovani axenic amastigotes).
In the case of `CCC(=O)Nc1ccc(Cl)c(-c2cn3cc(NC(=O)OC(C)C)cnc3n2)c1` [Compound 247], the EC50 came to 575 nM in experiment [1] (inhibition of proliferation), 367 nM in experiment [2] (inhibition of proliferation), 3250 nM in experiment [3] (inhibition of proliferation) and 740 nM in experiment [4] (setting [5]).
As for `CC(C)OC(=O)Nc1cnc2nc(-c3cc(Nc4ccccn4)ccc3F)cn2c1` [Compound 484, isopropyl (2-(2-fluoro-5-(pyridin-2-ylamino)phenyl)imidazo[1,2-a]pyrimidin-6-yl)carbamate], the half-maximal effective concentration (EC50) stood at 361 nM in experiment [1], 1360 nM in experiment [2], 9110 nM in experiment [3] and 1480 nM in experiment [4] (L. donovani axenic amastigotes).
As for `Cn1cnc(-c2cnc3nc(-c4cc(NC(=O)N5CCCC5)ccc4F)cn3c2)c1` [Compound 355], the half-maximal effective concentration (EC50) in experiment [1] (inhibition of proliferation) stood at 1140 nM; in experiment [2] (inhibition of proliferation) it was 86 nM; in experiment [3] (inhibition of proliferation), 521 nM; in experiment [4] (setting [5]), 97 nM.
Take `CN(C)c1cnc2nc(-c3cc(NC(=O)N4CC(F)(F)C4)ccc3F)cn2c1` [Compound 466]: the EC50 in experiment [1] was determined as 183 nM; in experiment [2], 44 nM; in experiment [3] it was 207 nM; in experiment [4] (L. donovani axenic amastigotes), 158 nM.
`O=C(Nc1cnc2nc(-c3cc(NC(=O)N4CCCC4)ccc3F)cn2c1)C1CCCN1` (stereo not shown) [Compound 121]: the EC50 in experiment [1] (inhibition of proliferation) was more than 20000 nM; in experiment [2] (inhibition of proliferation) it was 3950 nM; in experiment [3] (inhibition of proliferation) it was more than 50000 nM; in experiment [4] (setting [5]) it was 23100 nM.
For the compound `CC(C)OC(=O)Nc1cnc2nc(-c3cc(NC4=NCC(C)(C)O4)ccc3F)cn2c1` [Compound 503], the EC50 is more than 20000 nM in experiment [1], 36700 nM in experiment [2], 26600 nM in experiment [3] and more than 25000 nM in experiment [4] (L. donovani axenic amastigotes).
Take `Cc1nc(C)c(C(=O)Nc2ccc(F)c(-c3cn4cc(NC(=O)OC5(C)CC5)cnc4n3)c2)o1` [Compound 312]: the half-maximal effective concentration (EC50) in experiment [1] (inhibition of proliferation) was 441 nM; in experiment [2] (inhibition of proliferation) it was 54 nM; in experiment [3] (inhibition of proliferation) it was 139 nM; in experiment [4] (setting [5]), 120 nM.
For the compound `Cc1nc(C)c(C(=O)N(c2ccc(F)c(-c3cn4cc(OC(C)C)cnc4n3)c2)C(C)C)o1` [Compound 612], the EC50 worked out at 3810 nM in experiment [1], 12400 nM in experiment [2], 1060 nM in experiment [3] and 9400 nM in experiment [4] (L. donovani axenic amastigotes).
`CC(C)OC(=O)Nc1ccc(F)c(-c2cn3cc(-c4cccnc4)cnc3n2)c1` [Compound 399]: the concentration giving a half-maximal response (EC50) in experiment [1] worked out at 80 nM; in experiment [2], 103 nM; in experiment [3], 646 nM; in experiment [4] (L. donovani axenic amastigotes), 274 nM.
For `CC(C)OC(=O)Nc1cnc2nc(-c3cc(NC(=O)N4CCNC4=O)ccc3Cl)cn2c1` [Compound 217], the 50% effective concentration (EC50) in experiment [1] (inhibition of proliferation) was 7060 nM; in experiment [2] (inhibition of proliferation), more than 50000 nM; in experiment [3] (inhibition of proliferation), more than 50000 nM; in experiment [4] (setting [5]), more than 25000 nM.
For `O=C(Nc1ccc(F)c(-c2cn3cc(C4=CCOCC4)cnc3n2)c1)N1CC(F)(F)C1` [Compound 320], the concentration for a half-maximal effect (EC50) in experiment [1] (inhibition of proliferation) was determined as 186 nM; in experiment [2] (inhibition of proliferation) it was 35 nM; in experiment [3] (inhibition of proliferation), 180 nM; in experiment [4] (setting [5]), 58 nM.
Turning to `CC(C)(C)OC(=O)N1CCC(Oc2ccc(-c3cnc4nc(-c5cc(NC(=O)N6CCCC6)ccc5Cl)cn4c3)cc2)CC1` [Compound 345], the half-maximal effective concentration (EC50) in experiment [1] (inhibition of proliferation) was 408 nM; in experiment [2] (inhibition of proliferation), 527 nM; in experiment [3] (inhibition of proliferation), 955 nM; in experiment [4] (setting [5]) it was 251 nM.
The matching figures for `CC1=C(C(=O)Nc2cnc3nc(-c4cc(NC(=O)c5oc(C)nc5C)ccc4F)cn3c2)OCCO1` [Compound 116]: 3420 nM, 153 nM, 484 nM and 96 nM.
For the compound `Cc1nc(C)c(C(=O)Nc2ccc(F)c(-c3cn4cc(-c5ncccc5C)cnc4n3)c2)o1` [Compound 453], the EC50 came to 15 nM in experiment [1], 21 nM in experiment [2], 23 nM in experiment [3] and 17 nM in experiment [4] (L. donovani axenic amastigotes).
The matching figures for `CC(C)(C)OC(=O)N[C@H]1CC[C@H](CNc2cnc3nc(-c4cc(NC(=O)N5CCCC5)ccc4F)cn3c2)CC1` [Compound 477]: 386 nM, 55 nM, 425 nM and 751 nM.
Regarding `Cc1ccc(-c2cnc3nc(-c4cc(NC(=O)c5oc(C)nc5C)ccc4F)cn3c2)nc1` [Compound 445], the half-maximal effective concentration (EC50) worked out at 14 nM in experiment [1], 31 nM in experiment [2], 688 nM in experiment [3] and 12 nM in experiment [4] (L. donovani axenic amastigotes).
`Cc1nc(C)c(C(=O)Nc2ccc(F)c(-c3cn4cc(-c5ccc(CCN6CCOCC6)cc5)cnc4n3)c2)o1` [Compound 348]: the concentration giving a half-maximal response (EC50) came out at 41 nM in experiment [1] (inhibition of proliferation), 165 nM in experiment [2] (inhibition of proliferation), 1030 nM in experiment [3] (inhibition of proliferation) and 341 nM in experiment [4] (setting [5]).
The corresponding values for `Cc1nc(C)c(C(=O)Nc2ccc(F)c(-c3cn4cc(NC(=O)c5ccc(CN(C)C)cc5)cnc4n3)c2)o1` [Compound 189] are 10700 nM, 4270 nM, 15500 nM and 9070 nM.
